Tests used:
Assay in all cases: relative viability (nuclei count vs DMSO), 5 days (fraction); higher = more cells survive
MLN4924 + Navitoclax = compound: NS(=O)(=O)OC[C@@H]1C[C@@H](n2ccc3c(N[C@H]4CCc5ccccc54)ncnc32)C[C@@H]1O [MLN4924] + CC1(C)CCC(c2ccc(Cl)cc2)=C(CN2CCN(c3ccc(C(=O)NS(=O)(=O)c4ccc(N[C@H](CCN5CCOCC5)CSc5ccccc5)c(S(=O)(=O)C(F)(F)F)c4)cc3)CC2)C1 [Navitoclax] (partner 0.5 µM)
Outline: (§1)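 Nuclei were stained with Hoechst during a one-step fixation (final 0.05% Triton X-100, 1% formaldehyde, 1 ug/ml Hoechst) carried out 5 days after dosing, then counted on 4× images. The cells, lung cancer lines in 1536-well plates, had been dosed by pin tool the day after seeding with one drug alone or a fixed anchor-drug dose plus five library-drug doses (not always all listed) in √10 steps. Relative viability is the nuclei count in treated wells divided by that in vehicle wells, and each value is the median of duplicate plates.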

GSK126 + Tozasertib = compound: CC[C@H](C)N1C=C(C2=C(C=C(C=C21)C3=CN=C(C=C3)N4CCNCC4)C(=O)NCC5=C(C=C(NC5=O)C)C)C [GSK126] + Cc1cc(Nc2cc(N3CCN(C)CC3)nc(Sc3ccc(NC(=O)C4CC4)cc3)n2)n[nH]1 [Tozasertib] (partner 0.1 µM)
Outline: as §1

[1] = compound: C1CC(C1)(C(=O)O)C(=O)O.[NH2-].[NH2-].[Pt+2] [Carboplatin] + CC(=O)c1c(C)c2cnc(Nc3ccc(N4CCNCC4)cn3)nc2n(C2CCCC2)c1=O [Palbociclib] (partner 0.5 µM)
Outline: as §1

MLN4924 + AZD7762 = compound: NS(=O)(=O)OC[C@@H]1C[C@@H](n2ccc3c(N[C@H]4CCc5ccccc54)ncnc32)C[C@@H]1O [MLN4924] + NC(=O)Nc1cc(-c2cccc(F)c2)sc1C(=O)N[C@H]1CCCNC1 [AZD7762] (partner 0.2 µM)
Outline: as §1

| Cell Line | relative viability (MLN4924 + Navitoclax; first compound 0.04 µM) | relative viability (MLN4924 + Navitoclax; first compound 0.1265 µM) | relative viability (MLN4924 + Navitoclax; first compound 0.4 µM) | relative viability (MLN4924 + Navitoclax; first compound 1.265 µM) | relative viability (MLN4924 + Navitoclax; first compound 4 µM) | relative viability (GSK126 + Tozasertib; first compound 0.08 µM) | relative viability (GSK126 + Tozasertib; first compound 0.253 µM) | relative viability (GSK126 + Tozasertib; first compound 0.8 µM) | relative viability (GSK126 + Tozasertib; first compound 2.53 µM) | relative viability (GSK126 + Tozasertib; first compound 8 µM) | relative viability ([1]; first compound 0.08 µM) | relative viability ([1]; first compound 0.253 µM) | relative viability ([1]; first compound 0.8 µM) | relative viability ([1]; first compound 2.53 µM) | relative viability ([1]; first compound 8 µM) | relative viability (MLN4924 + AZD7762; first compound 0.04 µM) | relative viability (MLN4924 + AZD7762; first compound 0.1265 µM) | relative viability (MLN4924 + AZD7762; first compound 0.4 µM) | relative viability (MLN4924 + AZD7762; first compound 1.265 µM) | relative viability (MLN4924 + AZD7762; first compound 4 µM) |
| --- | --- | --- | --- | --- | --- | --- | --- | --- | --- | --- | --- | --- | --- | --- | --- | --- | --- | --- | --- | --- |
| NCI-H1355 | 0.982 | 0.847 | 0.657 | 0.268 | 0.302 | 0.573 | 0.495 | 0.546 | 0.533 | 0.378 | 0.442 | 0.446 | 0.415 | 0.402 | 0.395 | 0.833 | 0.875 | 0.788 | 0.441 | 0.234 |
| NCI-H1395 | 0.981 | 1.19 | 0.651 | 0.407 | 0.375 | 0.787 | 0.763 | 0.831 | 0.683 | 0.669 | 0.703 | 0.679 | 0.547 | 0.487 | 0.535 | 0.493 | 0.416 | 0.383 | 0.408 | 0.331 |
| NCI-H1437 | 1.03 | 0.906 | 0.571 | 0.347 | 0.143 | 0.42 | 0.433 | 0.4 | 0.35 | 0.388 | 0.302 | 0.316 | 0.273 | 0.272 | 0.31 | 0.999 | 0.852 | 0.855 | 0.589 | 0.285 |
| NCI-H1651 | 1.1 | 1.08 | 0.492 | 0.267 | 0.142 | 0.717 | 0.728 | 0.864 | 0.57 | 0.537 | 0.514 | 0.488 | 0.507 | 0.498 | 0.413 | 0.495 | 0.53 | 0.47 | 0.436 | 0.158 |
| NCI-H1666 | 0.858 | 0.503 | 0.328 | 0.213 | 0.224 | 0.667 | 0.624 | 0.557 | 0.52 | 0.49 | 0.687 | 0.685 | 0.549 | 0.602 | 0.6 | 0.726 | 0.755 | 0.614 | 0.356 | 0.362 |
| NCI-H1734 | 0.943 | 0.814 | 0.331 | 0.103 | 0.0958 | 0.322 | 0.235 | 0.295 | 0.224 | 0.283 | 0.367 | 0.342 | 0.356 | 0.362 | 0.311 | 0.863 | 0.641 | 0.204 | 0.104 | 0.111 |
| NCI-H1755 | 0.921 | 0.677 | 0.392 | 0.178 | 0.154 | 0.577 | 0.64 | 0.53 | 0.552 | 0.508 | 0.477 | 0.501 | 0.515 | 0.441 | 0.461 | 0.604 | 0.682 | 0.666 | 0.411 | 0.255 |
| NCI-H1793 | 0.386 | 0.458 | 0.412 | 0.276 | 0.283 | 0.324 | 0.331 | 0.422 | 0.475 | 0.363 | 0.364 | 0.365 | 0.31 | 0.325 | 0.365 | 0.714 | 0.463 | 0.51 | 0.406 | 0.216 |
| NCI-H1915 | 0.725 | 0.744 | 0.642 | 0.246 | 0.265 | 0.486 | 0.436 | 0.447 | 0.438 | 0.415 | 0.489 | 0.509 | 0.523 | 0.448 | 0.346 | 0.844 | 0.786 | 0.713 | 0.265 | 0.162 |
| NCI-H1944 | 1.05 | 0.979 | 0.873 | 0.209 | 0.215 | 0.261 | 0.24 | 0.247 | 0.23 | 0.28 | 0.335 | 0.359 | 0.332 | 0.332 | 0.272 | 0.766 | 0.627 | 0.39 | 0.186 | 0.123 |
| NCI-H1975 | 1.15 | 1.27 | 1.14 | 0.571 | 0.309 | 0.833 | 0.69 | 0.762 | 0.648 | 0.48 | 0.572 | 0.625 | 0.56 | 0.601 | 0.518 | 0.636 | 0.973 | 1.54 | 1.79 | 0.756 |
| NCI-H1993 | 0.962 | 0.618 | 0.584 | 0.505 | 0.584 | 0.586 | 0.639 | 0.585 | 0.659 | 0.649 | 0.596 | 0.781 | 0.634 | 0.627 | 0.534 | 0.756 | 0.572 | 0.424 | 0.369 | 0.405 |
| NCI-H2085 | 1.25 | 1.1 | 1.12 | 0.733 | 0.366 | 0.918 | 0.734 | 0.76 | 0.72 | 0.654 | 0.473 | 0.486 | 0.462 | 0.456 | 0.452 | 0.989 | 0.972 | 1.07 | 0.941 | 0.603 |
| NCI-H2087 | 0.923 | 0.682 | 0.379 | 0.177 | 0.132 | 0.23 | 0.222 | 0.214 | 0.202 | 0.258 | 0.259 | 0.23 | 0.208 | 0.212 | 0.194 | 1.3 | 1.17 | 0.604 | 0.165 | 0.128 |
| NCI-H2126 | 0.764 | 0.742 | 0.621 | 0.386 | 0.446 | 1 | 0.835 | 0.871 | 0.838 | 0.812 | 0.333 | 0.354 | 0.336 | 0.363 | 0.353 | 1.02 | 1.02 | 0.767 | 0.49 | 0.369 |
| NCI-H2170 | 0.709 | 0.313 | 0.34 | 0.144 | 0.164 | 0.697 | 0.661 | 0.764 | 0.651 | 0.661 | 0.39 | 0.411 | 0.384 | 0.379 | 0.342 | 0.9 | 0.536 | 0.544 | 0.147 | 0.112 |

Reference: the supplement of paper PMC10307832
